# Test results: patent publication US20030166202A1, “P450 Monooxygenases of the cyp79 family” (priority 2000, published 2003)
# Like-named read-outs stand apart in the source and are kept apart here.
# T1: CYP79A2 (Arabidopsis thaliana, UniProt Q9FLC8)
# T1 sequence (Q9FLC8 7-529 limits assumed): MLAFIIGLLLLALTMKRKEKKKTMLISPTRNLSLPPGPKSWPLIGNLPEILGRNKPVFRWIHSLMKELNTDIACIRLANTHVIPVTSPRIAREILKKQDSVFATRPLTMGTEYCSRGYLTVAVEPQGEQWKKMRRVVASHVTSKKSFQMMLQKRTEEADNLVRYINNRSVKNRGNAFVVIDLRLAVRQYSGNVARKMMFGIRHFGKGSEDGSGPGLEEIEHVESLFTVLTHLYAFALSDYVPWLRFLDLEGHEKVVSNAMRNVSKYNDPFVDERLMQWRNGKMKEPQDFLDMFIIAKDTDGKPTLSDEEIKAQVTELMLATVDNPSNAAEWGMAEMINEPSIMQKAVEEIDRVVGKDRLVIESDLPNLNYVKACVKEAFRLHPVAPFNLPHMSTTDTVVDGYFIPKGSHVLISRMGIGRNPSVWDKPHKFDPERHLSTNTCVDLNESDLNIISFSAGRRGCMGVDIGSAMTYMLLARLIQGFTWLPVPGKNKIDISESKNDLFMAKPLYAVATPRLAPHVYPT
# T2: CYP79B2 (Arabidopsis thaliana, UniProt O81346)
# T2 sequence (O81346 1-541): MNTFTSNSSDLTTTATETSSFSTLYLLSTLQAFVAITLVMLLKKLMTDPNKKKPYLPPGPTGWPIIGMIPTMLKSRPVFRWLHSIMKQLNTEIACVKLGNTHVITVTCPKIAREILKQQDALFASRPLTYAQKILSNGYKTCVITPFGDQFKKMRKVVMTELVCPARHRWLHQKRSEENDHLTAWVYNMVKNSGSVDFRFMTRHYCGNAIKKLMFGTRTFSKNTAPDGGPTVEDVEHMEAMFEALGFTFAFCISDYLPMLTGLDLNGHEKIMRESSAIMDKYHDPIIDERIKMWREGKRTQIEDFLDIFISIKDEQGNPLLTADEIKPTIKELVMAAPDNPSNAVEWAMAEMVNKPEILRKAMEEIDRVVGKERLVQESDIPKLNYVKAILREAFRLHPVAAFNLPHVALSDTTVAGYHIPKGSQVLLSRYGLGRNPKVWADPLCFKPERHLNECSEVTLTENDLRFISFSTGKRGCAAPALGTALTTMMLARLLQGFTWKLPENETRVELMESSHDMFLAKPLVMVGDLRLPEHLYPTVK
# Tests used:
# [1] = molecular target: CYP79F1 (Arabidopsis thaliana, UniProt Q949U1, M2A); details: E. coli C43(DE3) spheroplasts, GC-MS or TLC
# Chain of CYP79F1 (Q949U1 whole entry M2A): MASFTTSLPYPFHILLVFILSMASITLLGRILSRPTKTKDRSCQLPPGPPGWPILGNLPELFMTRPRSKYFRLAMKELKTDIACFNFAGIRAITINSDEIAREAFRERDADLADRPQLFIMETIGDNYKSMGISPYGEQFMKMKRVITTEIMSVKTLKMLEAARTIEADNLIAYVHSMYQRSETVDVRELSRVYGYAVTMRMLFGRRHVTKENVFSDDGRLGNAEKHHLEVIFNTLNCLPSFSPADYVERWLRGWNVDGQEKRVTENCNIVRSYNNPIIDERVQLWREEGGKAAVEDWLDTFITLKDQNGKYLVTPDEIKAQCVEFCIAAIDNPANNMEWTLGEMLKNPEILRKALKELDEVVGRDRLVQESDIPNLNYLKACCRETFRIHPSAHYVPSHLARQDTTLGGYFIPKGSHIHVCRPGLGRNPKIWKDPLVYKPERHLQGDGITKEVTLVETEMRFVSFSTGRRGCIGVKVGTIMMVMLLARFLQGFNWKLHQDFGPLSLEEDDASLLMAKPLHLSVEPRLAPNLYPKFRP
# Description: In a typical enzyme assay, 5 μl spheroplasts and 4 μl NADPH:cytochrome P450 reductase (equivalent to 0.04 units defined as 1 μmol cytochrome c/min) are incubated with substrate in buffer containing 30 mM KPi, pH 7.5, 3 mM NADPH, 3 mM reduced glutathione, 0.042% Tween 80, 1 mg ml^−1 L-α-dilauroylphosphatidylcholine in a total volume of 30 μl. Reaction mixtures containing spheroplasts of E. coli C43(DE3) transformed with empty vector are used as controls in all assays. 3.3 μM L-[U-^14C]phenylalanine (453 mCi/mmol; Pharmacia), 3.7 μM L-[U-^14C]tyrosine (449 mCi/mmol; Pharmacia), 0.1 mM L-[methyl-^14C]methionine (56 mCi/mmol; Pharmacia), and 24 μM L-[side chain-3-^14C]tryptophan (56.5 mCi/mmol; NEN) are tested as potential substrates. After incubation at 28° C. for 1 hour, half of the reaction mixture is analyzed by TLC on Silica Gel 60 F254 sheets (Merck) using toluene/ethyl acetate 5:1 (v/v) as eluent. Radiolabelled bands are visualized and quantified using a STORM 840 phosphoimager (Pharmacia). For GC-MS analysis, 450 μl reaction mixture containing 3.3 mM L-methionine (Sigma), 3.3 mM DL-dihomomethionine or 3.3 mM DL-trihomomethionine, respectively, are incubated for 4 hours at 25° C. and extracted with a total volume of 600 μl CHCl3. The organic phase is collected, evaporated, and the residue is dissolved in 15 μl CHCl3 and analyzed by GC-MS. […] An SGE column (BPX5, 25 m×0.25 mm, 0.25 μm film thickness) is used (heat pressure 100 kPa, splitless injection). The oven temperature program is as follows: 80° C. for 3 minutes, 80° C. to 180° C. at 5° C. min^−1, 180° C. to 300° C. at 20° C. min^−1, and 300° C. for 10 min. The ion source is run in EI mode (70 eV) at 200° C. […] DL-dihomomethionine, DL-trihomomethionine, 5-methylthiopentanaldoxime and 6-methylthiohexanaldoxime are synthesized as described (Dawson et al, J. Biol. Chem. 268: 27154-27159, 1993) and authenticated by NMR spectroscopy.
# [2] = molecular target: T1, CYP79A2; assay: CYP79A2 activity in E. coli spheroplasts reconstituted with NADPH:cytochrome P450 oxidoreductase
# [3] = molecular target: T2, CYP79B2; assay: CYP79B2 activity in E. coli spheroplasts reconstituted with NADPH:cytochrome P450 reductase
# Description: The activity of CYP79B2 is measured by reconstituting spheroplasts from E. coli expressing CYP79B2 with purified NADPH:cytochrome P450 reductase from Sorghum bicolor (L.) Moench. […] The reaction is incubated at 34° C. for 30 minutes, extracted two times with ethyl acetate and the ethyl acetate phase is analyzed by TLC using toluen:ethyl acetate 5:1 as eluent. Radiolabelled bands are visualized on a Storm 840 phosphorimager (Molecular Dynamics) and quantified with ImageQuant analysis software (Molecular Dynamics). Substrate specificity is investigated by substituting the ^14C-labelled tryptophan with ^14C-labelled tyrosine or phenylalanine. GC-MS is employed to verify the structure of the compound produced from tryptophan by recombinant CYP79B2. A 450 μl reaction mixture as described above containing 2 mM unlabelled tryptophan is incubated at 34° C. for 2 hours. The reaction mixture is extracted twice with 300 μl CHCl3 and lyophilized until dryness. GC-MS is performed with an HP5890 Series II gas chromatograph coupled to a Jeol JMS-AX505W mass spectrometer. Splitless injection on an SGE column (BPX5, 25 mm×0.25 mm, 0.25 μm film thickness) and a head pressure of 100 kPa are used.
# Single colonies are grown overnight at 37° C. in LB medium containing 100 μg/ml ampicillin. 1 ml of the overnight culture is used to inoculate 75 ml TB medium containing 100 μg/ml ampicillin, 75 μg/ml δ-aminolevulinic acid, 1 mM thiamine and 1 mM IPTG. The TB cultures are grown for 44 hours at 125 rpm and 28° C.
# [4] = test system: cassava microsomes; assay: Metabolism of amino acids by cassava microsomes; assay type: biochemical; details: amino acid as substrate
# [5] = molecular target: CYP79D1 (Manihot esculenta, UniProt Q9M7B8); details: for inhibition of CYP79D1 val-oxime formation: reconstitution in presence of inhibitor
# Chain of CYP79D1 (Q9M7B8 2-542): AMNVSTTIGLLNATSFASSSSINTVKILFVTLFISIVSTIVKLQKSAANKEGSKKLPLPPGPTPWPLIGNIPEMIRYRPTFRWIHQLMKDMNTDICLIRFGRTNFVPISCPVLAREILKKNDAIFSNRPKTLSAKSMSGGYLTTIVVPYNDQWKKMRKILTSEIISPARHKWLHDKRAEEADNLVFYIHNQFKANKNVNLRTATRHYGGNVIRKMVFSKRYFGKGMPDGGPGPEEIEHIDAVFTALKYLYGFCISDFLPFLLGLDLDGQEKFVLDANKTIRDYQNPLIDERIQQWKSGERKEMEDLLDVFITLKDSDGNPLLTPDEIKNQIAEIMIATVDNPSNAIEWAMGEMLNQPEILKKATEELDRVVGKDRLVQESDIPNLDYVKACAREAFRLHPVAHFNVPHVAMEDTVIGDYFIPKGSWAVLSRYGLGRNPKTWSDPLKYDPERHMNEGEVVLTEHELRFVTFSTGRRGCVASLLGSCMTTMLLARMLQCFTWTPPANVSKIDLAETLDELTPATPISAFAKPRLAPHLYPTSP
# Description: Isolated, recombinant CYP79D1 is reconstituted and its catalytic activity determined in vitro using reaction mixtures with a total volume of 30 μl containing 2.5 pmol CYP79D1, 0.05 U NADPH P450-oxidoreductase (Benveniste et al, Biochem J 235: 365-373, 1986), 10.6 mM L-α-dioleyl phosphatidylcholine, 0.35 μCi [U-^14C]-L-amino acid (L-Val, L-Ile, L-Leu, L-Tyr or L-Phe; Amersham, Sweden), 1 mM NADPH, 0.1 M NaCl and 20 mM KPi pH 7.9. In assays containing ^14C-L-valine or ^14C-L-isoleucine, different amounts of unlabeled L- and D-amino acids (0-6 mM) are added. After incubation for 10 minutes at 30° C. the products formed are extracted into 60 μl ethyl acetate and separated on TLC sheets (Merck Kieselgel 60F254) using n-pentane/diethyl ether (50:50, v/v) or toluene/ethyl acetate (5:1, v/v) as eluents for aliphatic compounds and aromatic compounds, respectively. ^14C-labeled oximes are visualized and quantified using a STORM 840 phosphor imager (Molecular Dynamics, CA, USA). The activity of CYP79D1 is additionally measured in the presence of the inhibitors tetcyclasis, ABT and DPI under the same conditions as described above. For in vivo activity assays 200 μl P. pastoris cells are pelleted and resuspended in 100 μl 50 mM Tricine pH 7.9 and 0.35 μCi [U-^14C]-L-valine or L-isoleucine. After incubation for 30 minutes at 30° C. the cells are extracted with ethyl acetate and the products formed are analyzed as above.
# CYP79D1 is reconstituted with sorghum NADPH-P450 oxidoreductase in the presence of high amounts of the lipid L-α-dioleyl phosphatidylcholine and 100 mM NaCl. […] To examine the effect of inhibitors on isolated CYP79D1, reconstitutions are performed in the presence of tetcyclasis, ABT and DPI using the same conditions as for cassava microsomes.
# [6] = molecular target: T3, CYP79D2 (Manihot esculenta, UniProt Q9M7B7); assay type: biochemical, cassava
# T3 construct: made in house
# T3 sequence (Q9M7B7 whole entry): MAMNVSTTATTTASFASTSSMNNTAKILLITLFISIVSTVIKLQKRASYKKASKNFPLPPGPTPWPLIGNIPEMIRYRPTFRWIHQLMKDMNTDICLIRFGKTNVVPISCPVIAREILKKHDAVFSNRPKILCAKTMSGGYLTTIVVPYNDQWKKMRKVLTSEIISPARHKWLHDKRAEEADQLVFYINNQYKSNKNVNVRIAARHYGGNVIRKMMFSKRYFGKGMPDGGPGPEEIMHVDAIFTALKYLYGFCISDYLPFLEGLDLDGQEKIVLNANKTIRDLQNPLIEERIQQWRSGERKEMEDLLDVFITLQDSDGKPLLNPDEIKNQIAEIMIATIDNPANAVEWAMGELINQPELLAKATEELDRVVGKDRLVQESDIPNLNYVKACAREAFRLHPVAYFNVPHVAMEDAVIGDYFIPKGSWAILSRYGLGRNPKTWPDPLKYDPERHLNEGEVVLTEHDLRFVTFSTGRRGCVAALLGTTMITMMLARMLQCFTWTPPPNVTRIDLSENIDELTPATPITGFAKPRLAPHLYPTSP
# Description: Investigations into the substrate specificity of CYP79D1, CYP79D2, CYP79E1, CYP79E2, CYP79A2, CYP79B2, CYP79B5 and CYP79F1 are carried out in E. coli spheroplasts reconstituted with sorghum NADPH-cytochrome P450 oxidoreductase in the presence of high amounts of lipids. L-α-dioleyl phosphatidyl choline and L-α-dilauroyl phosphatidyl choline are preferred lipids for the reconstitution. […] Depending on the nature of the substrate, substrate specificity may also be determined using intact P. pastoris cells or intact E. coli cells.
# The ability of a P450 monooxygenase to convert an aliphatic or aromatic amino acid or chain-elongated methionine homologue to the corresponding oxime can be tested in an assay (see also example 5) comprising
# a) incubating a reaction mixture comprising the P450 monooxygenase of the present invention or spheroplasts of E.coli cells expressing said enzyme, the parent amino acid, NADPH, oxygen, NADPH-cytochrome P450 oxidoreductase and lipid at ambient temperature for a certain period of time which is between 2 min and 2 to 6 hours;
# b) terminating the reaction for example by the addition of a denaturing compounds such as ethyl acetate; and
# c) chemically identifying and quantifying the aldoxime produced.
# [7] = substrate: N[C@@H](Cc1ccccc1)C(=O)O; assay: purified protein, by the assay type; details: other: spheroplasts expressing 'native' CYP79A2, 2 hours at 26° C., pH 7.5
molecule,measurement,setting,value
CSCCCCC(N)C(=O)O (racemic) [DL-dihomomethionine],formation of the corresponding aldoxime by CYP79F1,[1],"two compounds, which are not present in the control reactions, are detected by GC-MS"
NC(CCc1ccccc1)C(=O)O (racemic) [DL-homophenylalanine],production of the respective aldoxime by CYP79A2,[2],absence of detectable amounts of the homophenylalanine-derived aldoxime
CSCCCCCC(N)C(=O)O (racemic) [DL-trihomomethionine],formation of the corresponding aldoxime by CYP79F1,[1],two compounds with retention times and fragmentation pattern identical with those of the E/Z-isomers of the synthetic 6-methylthiopentanaldoxime are detected
"Oc1ccc(Cl)cc1Cl [2,4-dichlorophenol, reference compound]",inhibition of CYP79B2 activity,"[3]; 100 mM H2O2, 1 mM MnCl2 or 800 μM 2,4-dichlorophenol added to reconstitution assay",72%
CC[C@@H](C)[C@@H](N)C(=O)O [D-isoleucine],metabolism / cyanide production by cassava microsomes,[4],no metabolism is observed
CC(C)[C@@H](N)C(=O)O [D-valine],binding to the active site of CYP79D1 (competition with 14C-L-valine),[5],does not bind with high affinity
same,formation of the corresponding oxime / metabolism by CYP79D1,[5],neither the cassava microsomes nor isolated CYP79D1 metabolize
same,metabolism / cyanide production by cassava microsomes,[4],no metabolism is observed
"c1ccc2c(c1)[I+]c1ccccc1-2 [DPI, reference compound]",inhibition of CYP79D1 val-oxime formation,[5],completely inhibits
CC[C@H](C)[C@H](N)C(=O)O [L-isoleucine],conversion rate relative to L-valine,[5],approximately 60%
same,formation of the corresponding oxime / metabolism by CYP79D1,[5],corresponding oximes are formed
same,conversion to the corresponding oxime by CYP79D2,[6],found to convert
same,metabolism / cyanide production by cassava microsomes,[4],cyanide is produced
CSCC[C@H](N)C(=O)O [L-methionine],production of the respective aldoxime by CYP79A2,[2],does not result in production of detectable amounts of the respective aldoximes
same,formation of the corresponding aldoxime by CYP79F1,[1],did not result in the formation of detectable amounts of the corresponding aldoximes
N[C@@H](Cc1ccccc1)C(=O)O [L-phenylalanine],production of the respective aldoxime by CYP79A2,[2]; TLC or GC-MS detection,produce two radiolabelled compounds which comigrate with the (E)- and (Z)-isomers of phenylacetaldoxime
same,formation of the corresponding aldoxime by CYP79F1,[1],did not result in the formation of detectable amounts of the corresponding aldoximes
same,conversion to the corresponding oxime by CYP79D2,[6],"Neither L-Leucine, L-phenylalanine nor L-tyrosine are metabolized"
same,oxime production by CYP79B2,"[3]; radiolabelled amino acid, TLC",No oxime producing activity is detected
CC(C)[C@H](N)C(=O)O [L-valine],formation of the corresponding oxime / metabolism by CYP79D1,[5],corresponding oximes are formed
same,conversion to the corresponding oxime by CYP79D2,[6],found to convert
same,metabolism / cyanide production by cassava microsomes,[4],cyanide is produced
CCCCCCCC/C=C\CCCCCCCC(=O)OCCOCC(OCCO)C1OCC(OCCO)C1OCCO (stereo not drawn) [Tween 80],increase in aldoxime production,[2]; additive at final concentration 0.083% (v/v),1.5 fold
N[C@@H](CCC(=O)N[C@@H](CS)C(=O)NCC(=O)O)C(=O)O [reduced glutathione],effect on aldoxime production,[2]; additive at final concentration 3 mM,"stimulates aldoxime production, but to a lesser extent"
same,increase of CYP79B2 activity,[3]; addition of 1.5 mM,1.8 fold
"Clc1ccc(N2N=NC3C4CC(C5N=NC45)C32)cc1 (stereo not drawn) [tetcyclasis, reference compound]",inhibition of CYP79D1 val-oxime formation,[5],inhibited
CYP79A2 (Arabidopsis thaliana) (protein) MLAFIIGLLLLALTMKRKEKKKTMLISPTRNLSLPPGPKSWPLIGNLPEILGRNKPVFRWIHSLMKELNTDIACIRLANTHVIPVTSPRIAREILKKQDSVFATRPLTMGTEYCSRGYLTVAVEPQGEQWKKMRRVVASHVTSKKSFQMMLQKRTEEADNLVRYINNRSVKNRGNAFVVIDLRLAVRQYSGNVARKMMFGIRHFGKGSEDGSGPGLEEIEHVESLFTVLTHLYAFALSDYVPWLRFLDLEGHEKVVSNAMRNVSKYNDPFVDERLMQWRNGKMKEPQDFLDMFIIAKDTDGKPTLSDEEIKAQVTELMLATVDNPSNAAEWGMAEMINEPSIMQKAVEEIDRVVGKDRLVIESDLPNLNYVKACVKEAFRLHPVAPFNLPHMSTTDTVVDGYFIPKGSHVLISRMGIGRNPSVWDKPHKFDPERHLSTNTCVDLNESDLNIISFSAGRRGCMGVDIGSAMTYMLLARLIQGFTWLPVPGKNKIDISESKNDLFMAKPLYAVATPRLAPHVYPT,Km,[7],6.7 μmol I^−1
